The subject of assay [1] is DIO mice. The assay is described as follows: Combination of PB-119 and PB-722, weight loss in DIO mice, 21 days (Example 20). It counts as in vivo, C57BL/6 mice. Conditions: 10 nmol/kg once every two days. The procedure: Male C57BL/6 mice (from the same source as described above) were fed with high-fat diet (45% kcal) for 22 weeks. […] 36 DIO mice were divided into 6 groups based on their body weight and random blood sugar level, with 6 mice per group. […] Except that administration was carried out twice a day in group 6, administration was carried out once every two days in other groups. The experiment was conducted for a total of 21 days for a continuous administration. The body weight and food intake of the mice were measured on the day of the administration, and random blood sugar level and fasting blood sugar level were measured on the second day after the last administration.
After 21 days of administration, an oral glucose tolerance experiment was performed. Mice were orally given 2.5 g/kg glucose solution, and random glucose level was measured at 0 min, 15 min, 30 min, 60 min and 120 min after sugar feeding.

Assay [2] deals with DIO mice. The assay is described as follows: Long-term administration of PB-119 with PB-721 or PB-722, weight loss and lipids in DIO mice (Example 18). It counts as in vivo, C57BL/6 mice. The settings on record: for decrease of liver triglyceride content compared with model control group / decrease of serum total cholesterol content / serum triglyceride level: Day21; for decrease of cumulative food intake compared with model control group / body weight decrease compared with that before the administration: 21 days. The procedure: Each group was administered subcutaneously, once every two days, and the experiment lasted for 21 days with 11 administrations. During the experimental period, the body weight and food intake of the mice were measured every day. The blood sugar level was measured at Day1 and Day21, and the serum triglyceride serum, total cholesterol, liver triglyceride and other indexes were measured at Day21.

Assay [3] relates to DIO mice. The assay is described as follows: Long-term administration of PB-718, PB-119 and PB-708+PB-120, weight loss in DIO mice (Example 17). The class given is in vivo, C57BL/6 mice. Conditions: 14 days. The procedure: The Victoza group was dosed once a day and the remaining groups were dosed once every 2 days. The continuous administration experiment was conducted for a total of 14 days. During the experimental period, the body weight and food intake of the mice were measured every day. Random blood sugar level was measured before the start of the experiment and after the complement of the experiment.

The subject of assay [4] is nonalcoholic steatohepatitis (NASH) model mice. The assay is described as follows: Combination of PB-119 and PB-722 in nonalcoholic steatohepatitis (NASH) mouse model (Example 21). It counts as in vivo, C57/BL6J mice. The settings on record: 10 mg/kg orally once a day, 21 days. The text has this:
30 C57/BL6J mice (purchased from Lingchang Biotechnology Co. Ltd., Shanghai, China) were used in this experiment. Twenty four of them were intraperitoneally injected with streptozotocin (STZ) one week after they were born and fed with high-fat diet (purchased from Research Diets, Inc) for five weeks to successfully create a nonalcoholic steatohepatitis (NASH) model. The other 6 were used as normal control and fed with normal diet. The administration started at the sixth week. […] The positive control group was orally administered once a day and the other groups were administered subcutaneously once every two days for 21 consecutive days. During the administration period, body weight was measured every day and the food intake was measured every two days. After the last day of administration, the animals were fasted overnight, and then weighed and euthanized. Serum and liver tissues were taken and the liver weights were measured. Serum glucose and insulin levels were detected. Liver tissue was fixed with formaldehyde solution, and tissue sections were made and stained with HE, oil red and Sirius red. The sections were examined and scored to determine the NASH index.

The test system of assay [5] is DIO mice. The assay is described as follows: Long-term administration of PB-716 series conjugates, weight loss in DIO mice (Example 16). The class given is in vivo, C57BL/6 mice. As for the experimental part: […] The continuous administration experiments was conducted for a total of 14 days. During the experimental period, the body weight and food intake of the mice were measured every day. Random blood sugar level was measured before the start of the experiment and after the complement of the experiment.

Consider mPEG-23 KD-ppMAL-PB-105 [PB-119], for which, in the assay with DIO mice [1], the “body weight decrease compared with that before the administration” value (“body weight decrease” for short) amounted to 16.6%, the “decrease in cumulative food intake compared with control group” value is 14.4% and the “fasting blood sugar level decrease compared with that before administration” value came out at 17.9%. Also, in the assay on DIO mice [2] (10 nmol/kg alone), the “decrease of liver triglyceride content compared with model control group” value was 12.67%, the “decrease of serum total cholesterol content” value is 39.35% and the serum triglyceride level entry is “did not significantly improve”. In addition, the “decrease of cumulative food intake compared with model control group” value in the assay on DIO mice [2] (10 nmol/kg alone, s.c. once every two days) turned out to be 25.14%. Besides, in the assay on DIO mice [2] (10 nmol/kg s.c. once every two days), the “body weight decrease” value is listed as 14.37%. For the same compound, in the assay with DIO mice [3] (210 μg/kg once every 2 days), the “body weight decrease” value is 13.33%, the “decrease of cumulative food intake compared with control group” value is 39.95% and the “decrease of random blood sugar level” value is given as 27.27%.
Consider “mPEG-23 KD-ppMAL--PB-740 (HSQGTFTSDYSKYLDSRRAQDFVQWLMNTC; mPEG-23KD-ppMAL conjugate) [PB-721]”, for which, in the assay with DIO mice [2] (60 nmol/kg alone), the “decrease of liver triglyceride content compared with model control group” value came out at 73.29%, the “decrease of serum total cholesterol content” value was 60.86% and the serum triglyceride level result is recorded as “did not significantly improve”. For the same compound, the “decrease of cumulative food intake compared with model control group” value with DIO mice [2] (60 nmol/kg alone, s.c. once every two days) is on record as 2.36%. Further, the “body weight decrease” value with DIO mice [2] (alone, 60 nmol/L as printed, s.c. once every two days) is listed as 21.65%.
Turning to `CCCc1nc2c(C)cc(-c3nc4ccccc4n3C)cc2n1Cc1ccc(-c2ccccc2C(=O)O)cc1` [telmisartan], the blood sugar level entry in assay [4] is reported as “no effect”.
Regarding `CCCCCCCCCCCCCCCC(=O)N[C@@H](CCC(=O)NCCCC[C@H](NC(=O)[C@H](C)NC(=O)[C@H](C)NC(=O)[C@H](CCC(N)=O)NC(=O)CNC(=O)[C@H](CCC(=O)O)NC(=O)[C@H](CC(C)C)NC(=O)[C@H](Cc1ccc(O)cc1)NC(=O)[C@H](CO)NC(=O)[C@H](CO)NC(=O)[C@@H](NC(=O)[C@H](CC(=O)O)NC(=O)[C@H](CO)NC(=O)[C@@H](NC(=O)[C@H](Cc1ccccc1)NC(=O)[C@@H](NC(=O)CNC(=O)[C@H](CCC(=O)O)NC(=O)[C@H](C)NC(=O)[C@@H](N)Cc1cnc[nH]1)[C@@H](C)O)[C@@H](C)O)C(C)C)C(=O)N[C@@H](CCC(=O)O)C(=O)N[C@@H](Cc1ccccc1)C(=O)N[C@H](C(=O)N[C@@H](C)C(=O)N[C@@H](Cc1c[nH]c2ccccc12)C(=O)N[C@@H](CC(C)C)C(=O)N[C@H](C(=O)N[C@@H](CCCNC(=N)N)C(=O)NCC(=O)N[C@@H](CCCNC(=N)N)C(=O)NCC(=O)O)C(C)C)[C@@H](C)CC)C(=O)O` [Victoza, reference compound], the “body weight decrease” value was 15.83% with DIO mice [5] (200 μg/kg once a day, 14 days) and 15.92% with DIO mice [3] (200 μg/kg once a day). Further, the “decrease of cumulative food intake relative to model control group” value in the assay with DIO mice [5] (200 μg/kg once a day, end of 14-day continuous administration) is on record as 50.82%. For the same compound, in the assay on DIO mice [5] (Victoza 200 μg/kg, single administration), the “body weight compared with control group by 96 hours after first administration” value is given as “no significant difference”.

(Values after US10894076B2 (PEGBIO CO., LTD., priority 2015, dated 2021).)
